Patent US10597368B2, “Syringolin analogues and methods of making and using same” (BROWN UNIVERSITY, priority 2015, dated 2020)

target: T1, human 20S proteasome (hs20S), chymotrypsin-like β5-subunits (Homo sapiens, UniProt P20618+P28074); assay: In vitro 20S peptidase inhibition kinetics, chymotrypsin-like activity (Suc-LLVY-AMC); format: biochemical; conditions: second-order rate constant, Suc-LLVY-AMC substrate, 37° C.
T1 construct: purchased R&D
Procedure: In vitro 20S peptidase inhibition assays were recorded in a 384-well plate at a SpectraMax M5 (Molecular devises) plate-reader. Therefore, 5 nM human 20S (R&D) was incubated in buffer R (50 mM HEPES-KOH, pH 7.5, 0.5 mM EDTA) with 100 μM of the fluorogenic peptide substrates Suc-LLVY-AMC or Boc-LRR-AMC. Reactions were started by adding various amounts of inhibitors (5 nM to 500 μM) to a final volume of 30 μL and peptide hydrolysis was continuously monitored for 90 min by changes in fluorescence (excitation 380 nm; emission 440 nm) at 37° C. The kobs values were determined by fitting the raw data to equation (1). The slopes of the plots of kobsversus I gave an apparent value of kobs/I, also referred to as kinact/Ki for an irreversible inhibitor, which was then corrected by equation (2) to compensate for the effect of substrate competition, where app is the apparent value at different inhibitor concentrations.
Using purified human 20S proteasome (hs20S) and a fluorogenic substrate (Suc-LLVY-AMC), in vitro assays were performed to systematically assess proteasome inhibition by the syringolin analogues. The choice of substrate was based on the fact that it is preferentially acted upon by the chymotrypsin-like β5-subunits of the proteasome due to the aromatic tyrosine residue at the scissile bond (i.e., P1 position).
From measurements of the rates of hydrolysis of the fluorogenic substrate by the proteasome in the presence of increasing concentrations of each inhibitor, second-order rate constants kin/Ki (M^−1 s^−1) were determined (Table 1), which reflect both the affinity of the non-covalent binding (Ki) and the rate of the chemical reaction with the enzyme (kin). All of the syringolin analogues were capable in inhibiting the chymotrypsin-like activity of hs20S. Without wishing to be limited by any theory, consistent with the design predictions, the most significant contributor to the apparent second-order rate constants of the compounds was their binding affinity (Ki) rather than the rates of inhibition.
In vitro 20S peptidase inhibition assays were recorded in a 384-well plate at a SpectraMax M5 (Molecular Devices) plate-reader. Therefore, 5 nM human 20S (R&D) was incubated in buffer R (50 mM HEPEs-KOH, pH 7.5, 0.5 mM EDTA) with 100 μM of the fluorogenic peptide substrate Suc-LLVY-AMC. Reactions were started by adding various amounts of inhibitors 5 nM to 500 μM) to a final volume of 30 μL and peptide hydrolysis was continuously monitored for 90 minutes by changes in fluorescence (excitation 380 nm; emission 440 nm) at 37 degrees Celsius. The kobs values were determined by fitting the raw data to equation 1. The slopes of the plots of kobs versus I gave an apparent value of kob/I, also referred to as kinact/Ki for an irreversible inhibitor, which was then corrected by equation 2 to compensate for the effect of substrate competition, where app is the apparent value at different inhibitor concentrations.

hs20S kin/Ki | SMILES
2,471 M^−1s^−1 | COC(=O)[C@@H](NC(=O)N[C@H](C(=O)N[C@H]1CCCCNC(=O)/C=C/[C@H](Cc2cccc(F)c2)NC1=O)C(C)C)C(C)C [Compound 6, (S)-methyl 2-(3-((S)-1-(((5S,8S,E)-5-(3-fluorobenzyl)-2,7-dioxo-1,6-diazacyclododec-3-en-8-yl)amino)-3-methyl-1-oxobutan-2-yl)ureido)-3-methylbutanoate]
1,579 M^−1s^−1 | COC(=O)[C@@H](NC(=O)N[C@H](C(=O)N[C@H]1CCCCNC(=O)/C=C/[C@H](Cc2cc(F)cc(F)c2)NC1=O)C(C)C)C(C)C [Compound 7, (S)-methyl 2-(3-((S)-1-(((5S,8S,E)-5-(3,5-difluorobenzyl)-2,7-dioxo-1,6-diazacyclododec-3-en-8-yl)amino)-3-methyl-1-oxobutan-2-yl)ureido)-3-methylbutanoate]
2199 M⁻¹ s⁻¹ | COC(=O)[C@@H](NC(=O)N[C@@H](Cc1cccc(F)c1)C(=O)N[C@H]1CCCCNC(=O)/C=C/[C@H](Cc2ccccc2F)NC1=O)C(C)C [Compound 23, (S)-methyl 2-(3-((S)-1-((5S,8S,E)-5-(2-fluorobenzyl)-2,7-dioxo-1,6-diazacyclododec-3-en-8-ylamino)-3-(3-fluorophenyl)-1-oxopropan-2-yl)ureido)-3-methylbutanoate]

Second part, the compound before the results:

SMILES | hs20S kin/Ki
COC(=O)[C@@H](NC(=O)N[C@@H](Cc1ccccc1Cl)C(=O)N[C@H]1CCCCNC(=O)/C=C/[C@H](Cc2ccccc2F)NC1=O)C(C)C [Compound 17, (S)-methyl 2-(3-((S)-3-(2-chlorophenyl)-1-((5S,8S,E)-5-(2-fluorobenzyl)-2,7-dioxo-1,6-diazacyclododec-3-en-8-ylamino)-1-oxopropan-2-yl)ureido)-3-methylbutanoate] | 7271 M⁻¹ s⁻¹
COC(=O)[C@@H](NC(=O)N[C@@H](Cc1cccc(Cl)c1)C(=O)N[C@H]1CCCCNC(=O)/C=C/[C@H](Cc2ccccc2F)NC1=O)C(C)C [Compound 18, (S)-methyl 2-(3-((S)-3-(3-chlorophenyl)-1-((5S,8S,E)-5-(2-fluorobenzyl)-2,7-dioxo-1,6-diazacyclododec-3-en-8-ylamino)-1-oxopropan-2-yl)ureido)-3-methylbutanoate] | 4656 M⁻¹ s⁻¹
COC(=O)[C@@H](NC(=O)N[C@@H](Cc1ccccc1)C(=O)N[C@H]1CCCCNC(=O)/C=C/[C@H](Cc2ccccc2F)NC1=O)C(C)C [Compound 19, (S)-methyl 2-(3-((S)-1-((5S,8S,E)-5-(2-fluorobenzyl)-2,7-dioxo-1,6-diazacyclododec-3-en-8-ylamino)-1-oxo-3-phenylpropan-2-yl)ureido)-3-methylbutanoate] | 5877 M⁻¹ s⁻¹
COC(=O)[C@@H](NC(=O)N[C@@H](Cc1cccc(C)c1)C(=O)N[C@H]1CCCCNC(=O)/C=C/[C@H](Cc2ccccc2F)NC1=O)C(C)C [Compound 20, (S)-methyl 2-(3-((S)-1-((5S,8S,E)-5-(2-fluorobenzyl)-2,7-dioxo-1,6-diazacyclododec-3-en-8-ylamino)-1-oxo-3-m-tolylpropan-2-yl)ureido)-3-methylbutanoate] | 3797 M⁻¹ s⁻¹
COC(=O)[C@@H](NC(=O)N[C@@H](Cc1ccc(C)cc1)C(=O)N[C@H]1CCCCNC(=O)/C=C/[C@H](Cc2ccccc2F)NC1=O)C(C)C [Compound 21, (S)-methyl 2-(3-((S)-1-((5S,8S,E)-5-(2-fluorobenzyl)-2,7-dioxo-1,6-diazacyclododec-3-en-8-ylamino)-1-oxo-3-p-tolylpropan-2-yl)ureido)-3-methylbutanoate] | 7332 M⁻¹ s⁻¹
COC(=O)[C@@H](NC(=O)N[C@@H](Cc1ccccc1Cl)C(=O)N[C@H]1CCCCNC(=O)/C=C/[C@H](Cc2cccc(F)c2)NC1=O)C(C)C [Compound 24, (S)-methyl 2-(3-((S)-3-(2-chlorophenyl)-1-((5S,8S,E)-5-(3-fluorobenzyl)-2,7-dioxo-1,6-diazacyclododec-3-en-8-ylamino)-1-oxopropan-2-yl)ureido)-3-methylbutanoate] | 2749 M⁻¹ s⁻¹
